Results from PMC9354705, “Characterization of TR‐107, a novel chemical activator of the human mitochondrial protease ClpP” (Pharmacology Research & Perspectives, 2022).

What was measured:
[1] = tested on: MDA‐MB‐231 and SUM159 cells; experiment: Immunoblotting for mitochondrial proteins; format: cell-based, human
Protocol: Cell lysates were clarified and immunoblotted as described earlier.[45] Membranes were incubated with primary antibodies (Appendix S1) diluted 1:1000 in 1% fish gelatin (Sigma‐Aldrich, G7041)/TBST overnight at 4°C, removed, washed 3 × 5 min in TBST, and placed in their respective 2° antibodies (1:10 000 dilution in 5% milk/TBST) for 1 h. […] Acquired images were processed/quantified using Image Lab software (BioRad) or Image Studio Lite (LI‐COR).

[2] = tested on: MDA‐MB‐231 or SUM159 cells; experiment: Caspase‐3/7 activity assay and PARP cleavage; format: cell-based, human
Protocol: […]. The samples were collected in lysis buffer (50 mM HEPES [pH: 7.4], 5 mM CHAPS, and 5 mM DTT), and caspase activity was measured by monitoring fluorescence (ex/em: 360/460 nm) using a SpectraMax i3x (Molecular Devices).

[3] = tested on: MDA‐MB‐231 xenografts; experiment: MDA‐MB‐231 mouse xenograft study; format: in vivo
Protocol: Mitochondrial DNA copy number was determined as previously described.[23] Briefly, genomic DNA was isolated from tissue lysate with DNeasy Blood & Tissue kit (Qiagen, 69504). mtDNA copy number was determined by quantitative PCR with a human mitochondrial to nuclear DNA ratio kit (Takara Bio USA, 7246).
Female athymic nude mice (Crl:NU[Ncr]‐Foxn1^ nu , Charles River) were 8 weeks old with body weight (BW) range of 19.0–27.0 g on Day 1 of the study. Animals were fed ad libitum water (reverse osmosis, 1 ppm Cl) and NIH 31 Modified and Irradiated Lab Diet® consisting of 18.0% crude protein, 5.0% crude fat, and 5.0% crude fiber. Mice were housed on irradiated Enrich‐o'cobs™ Laboratory Animal Bedding in static microisolators on a 14‐h light cycle at 20–22°C and 40%–60% humidity. Charles River Discovery Services North Carolina (CR Discovery Services) specifically complies with the recommendations of the Guide for Care and Use of Laboratory Animals with respect to restraint, husbandry, surgical procedures, feed and fluid regulation, and veterinary care. The animal care and use program at CR Discovery Services is accredited by the Association for Assessment and Accreditation of Laboratory Animal Care International.
MDA‐MB‐231 human breast adenocarcinoma cells were grown to mid‐log phase in RPMI‐1640 supplemented with 10% FBS, 2 mM glutamine, 100 units/ml sodium penicillin G, 25 μg/ml gentamicin, 100 μg/ml streptomycin sulfate, 0.075% sodium bicarbonate, 10 mM HEPES, and 1 mM sodium pyruvate. Cells were cultures at 37°C and 5% CO2.
MDA‐MB‐231 cells were harvested during exponential growth and resuspended in cold, sterile DPBS. Each animal received an orthotopic injection of 5 × 10^6 cells (0.05 ml volume) into the mammary fat pad. Tumor growth was monitored as the average tumor size approached the target range of 60–100 mm^3. Tumors were measured in two dimensions via caliper and volume was calculated using the following formula: Tumor Volume=w^2×l/2, where w is the width and l is the length (mm) of the tumor. Tumor weight was estimated based on the assumption that 1 mg = 1 mm^3. Fourteen days later (Day 1), animals were sorted into groups (n = 10 per group) with a mean tumor volume of 70–73 mm^3.
Compounds were administered orally (p.o.) in a dosing volume of 10 ml/kg. Twice daily doses (B.I.D) were administered at least 6 h apart.
Tumors were measured using calipers biweekly and animals were euthanized upon reaching tumor volume > 1500 mm^3 or on the final study day (Day 36), whichever came first. Time to endpoint (TTE) for analysis was calculated for animals that exited the study due to tumor volume using the following equation: TTE=log10endpoint volume−b/m, where TTE is expressed in days, endpoint volume is expressed in mm^3, b is the y‐intercept, and m is the slope of the line obtained by linear regression of a log‐transformed tumor growth data set. […] In instance where this equation yields a TTE day preceding the day prior to reaching the endpoint or exceeding the day of reaching the endpoint, a linear interpolation was performed to approximate TTE. Animals documented as having died of nontreatment‐related causes due to accident or unknown etiology were excluded from TTE calculations and all further analysis. Animals documented having died due to treatment‐related deaths or nontreatment‐related due to metastasis were assigned a TTE value equivalent to the day of death. Treatment outcome was evaluated from tumor growth delay (TGD) defined as the increase in the median TTE in the treatment group compared with the control group.
On Day 36, all animals in all groups were sampled. Tumors were excised, divided into two parts, and weighed. Part 1 was preserved in a 5 ml fixative solution (4% formaldehyde, 2% glutaraldehyde in 0.1 M cacodylate buffer) and stored at 4°C. Part 2 was trimmed to be less than 0.5 cm in at least one dimension, submerged in five volumes of RNAlater solution, and stored at −20°C.

[4] = tested on: MDA‐MB‐231 or SUM159 cells; experiment: Time‐course total cell count in MDA‐MB‐231 or SUM159 cells; format: cell-based, human; conditions: up to 72 h, both cell lines, vs vehicle control
Protocol: Total cell counting assays were performed by seeding MDA‐MB‐231 cells (WT and ClpP‐KO; 4000 cells/well) or SUM159 (WT and ClpP‐KO; 1000 cells/well) in a 96‐well plate (Perkin Elmer, 6005050) and allowed to adhere overnight. The growth medium was then aspirated and replaced with 100 μl of growth medium supplemented with the drug at concentrations indicated in the figure or figure legends. Cells treated with vehicle control (0.1% DMSO, Sigma‐Aldrich D2650) were used as a negative control in all experiments, and cells were incubated with drug‐containing media for 24, 48, or 72 h as indicated in figure legends. Media was then aspirated and replaced with 100 μl Dulbecco's phosphate‐buffered saline (DPBS Gibco, 14190‐144) containing 1 μg/ml Hoechst stain (ThermoFischer Scientific, H3570) and allowed to incubate at 37°C for 30 min. The total cell number was then quantified using the Celigo Imaging Cytometer (Nexcelom).

[5] = 100 nM TR‐107, 150 nM TR‐57, or 10 μM ONC201

N#Cc1cccc(CN2CCc3ncn(Cc4ccc(Cl)cc4)c(=O)c3C2)c1 [TR‐107]
TUFM and TFAM protein levels by 24 h [1, 5]: complete or near‐complete loss
time at which TUFM and TFAM protein levels began to decline [1, 5]: ~ 6 h
HSP60 levels ([1]; MDA‐MB‐231 cells, 100 nM): significantly reduced in a time‐dependent manner
caspase‐3/7 activity ([2]; 24 h, 10 μM ONC201, 150 nM TR‐57, 100 nM TR‐107, 100 nM staurosporine): no increase
PARP cleavage ([2]; data not shown): no increase
reduction in tumor volume ([3]; 4 mg/kg (G2) and 8 mg/kg (G3) oral, day 26, vs vehicle): ~ 50%
increase in median survival ([3]; 4 mg/kg and 8 mg/kg oral, both groups, vs vehicle): ~ 35%
mitochondrial DNA in tumor lysates ([3]; 8 mg/kg (G3) vs control, end of study): substantial loss
PYCR2 and HMGCS1 protein levels in tumor lysates ([3]; 8 mg/kg vs vehicle): significantly reduced
TFAM in xenograft tumor lysates (immunoblot) ([3]; 8 mg/kg vs vehicle): significant loss
weight loss ([3]; even at the highest dosing regimen): less than 5%
tolerability ([3]; oral 4 and 8 mg/kg): well tolerated
concentrations inhibiting the increase in cell number [4]: > 10 nM
